Reference: patent US20240315991A1, “USES OF HNF4 ALPHA AGONISTS” (Sanford Burnham Prebys Medical Discovery Institute, priority 2023, published 2024)
Entries after “also recorded” stand apart in the source; their conditions may differ.

Legend:
HNF4α = target: T1, HNF4α (Mus musculus, UniProt P49698); experiment: HNF4α immunofluorescence of liver sections; assay type: in vivo; conditions: C57BL/6 mice, HFD containing 4000 ppm NCT (approximately 400 mg/kg/d), oral, 10 weeks, vs HFD
T1 construct: from tissue; host or cells: liver of C57BL/6J mice
Protocol: NCT oral administration. Four-week-old male C57BL/6J (JAX cat #000664) mice were purchased from Jackson laboratory and were maintained in a 12 h light/dark cycle throughout the experiment. Prior to the experiments, mice were acclimated for 2 weeks. Six-week-old mice with similar body weights were randomized to a normal diet (NC), a high fat diet (HFD) (Research Diets, cat #D12492 60 kcal % fat) or HFD containing 4000 ppm NCT (HFD+NCT) (Research Diets, 60 kcal % fat+4000 ppm NCT), which was calculated to provide approximately 400 mg/kg/d NCT. HFD chow containing NCT was made with gray dye to distinguish it from regular HFD chow that had green dye. Mice for each treatment group were placed in separate cages. […] Body weight gain and food intake were measured every week for 10 weeks. […]
Immunofluorescence. […] Slides were mounted using fluorescence mounting medium and images were obtained at ×40 magnification using an Olympus IX71 fluorescence microscope. Fluorescence intensity of HNF4α-stained nuclei and VDAC stained mitochondria was calculated using MetaMorph TL software (version 7.6.5.0, Olympus). Fold change was calculated by normalizing to values from mice fed NC.
C57BL/6 mice were fed normal chow (NC), a high fat diet (HFD), or a high fat diet containing 4000 ppm NCT (HFD+NCT) for 10 weeks. […] The fold change was calculated vs. NC (NC, N=3, HFD and HFD+NCT, N=12). […]

[1] = tested on: mitochondrial fatty acid oxidation (FAO) activity; experiment: Fatty acid oxidation assay in liver lysate; assay type: in vivo, mouse
Protocol: (§1) NCT oral administration. Four-week-old male C57BL/6J (JAX cat #000664) mice were purchased from Jackson laboratory and were maintained in a 12 h light/dark cycle throughout the experiment. Prior to the experiments, mice were acclimated for 2 weeks. Six-week-old mice with similar body weights were randomized to a normal diet (NC), a high fat diet (HFD) (Research Diets, cat #D12492 60 kcal % fat) or HFD containing 4000 ppm NCT (HFD+NCT) (Research Diets, 60 kcal % fat+4000 ppm NCT), which was calculated to provide approximately 400 mg/kg/d NCT. HFD chow containing NCT was made with gray dye to distinguish it from regular HFD chow that had green dye. Mice for each treatment group were placed in separate cages. Equal amounts of fresh chow were provided every week to all mice. Body weight gain and food intake were measured every week for 10 weeks. After 10 weeks of chow treatment, mice were sacrificed for analysis. All animal experiments were approved by the Institutional Animal Care and Use Committee (IACUC) of the Sanford Burnham Prebys Medical Discovery Institute in accordance with national regulations. Sample size was chosen based on the prior study of NCT delivered by IP injection.
Fatty acid oxidation assay. FAO in liver lysate was measured according to manufacturer's instructions using a calorimetric assay kit (Cat #E-141, Biomedical Research Service Center, State University of New York, Buffalo, NY).
Thus, the effect of NCT on FAO appeared to be a secondary rather than primary effect.

[2] = tested on: total cellular nicotinamide adenine dinucleotide (NAD); experiment: Nicotinamide adenine dinucleotide assay in liver lysate; assay type: in vivo, mouse; conditions: HFD+NCT vs HFD, 10 weeks
Protocol: as §1
Nicotinamide adenine dinucleotide assay. Total NAD level in liver lysate was analyzed according to manufacturer's instructions using a calorimetric NAD+/NADH assay kit (Cat #MET-5014, Cell Biolabs, Inc. USA). […]

citrate synthase = experiment: Citrate synthase activity in liver homogenate; assay type: in vivo, mouse; conditions: HFD+NCT vs HFD, FIGS. 3A-3C
Protocol: as §1, with “Sample size was chosen based on the prior study of NCT delivered by IP injection.” left out
Citrate synthase activity. Citrate synthase activity in liver homogenate was measured according to manufacturer's instructions using a calorimetry based MitoCheck Citrate Synthase Activity Assay Kit (Cat #701040, Cayman Chemicals, USA).

SDHA mRNA [3] = experiment: RT-PCR of mouse liver, SDHA; assay type: in vivo; conditions: HFD+NCT vs HFD, FIGS. 3G and 3H
Protocol: (§2) NCT oral administration. Four-week-old male C57BL/6J (JAX cat #000664) mice were purchased from Jackson laboratory and were maintained in a 12 h light/dark cycle throughout the experiment. Prior to the experiments, mice were acclimated for 2 weeks. Six-week-old mice with similar body weights were randomized to a normal diet (NC), a high fat diet (HFD) (Research Diets, cat #D12492 60 kcal % fat) or HFD containing 4000 ppm NCT (HFD+NCT) (Research Diets, 60 kcal % fat+4000 ppm NCT), which was calculated to provide approximately 400 mg/kg/d NCT. HFD chow containing NCT was made with gray dye to distinguish it from regular HFD chow that had green dye. Mice for each treatment group were placed in separate cages. Equal amounts of fresh chow were provided every week to all mice. Body weight gain and food intake were measured every week for 10 weeks. After 10 weeks of chow treatment, mice were sacrificed for analysis. […]
(§3) RT-PCR. […] Quantitative real time PCR (RT-PCR) analysis was performed using SYBR® Select Master Mix (Applied Biosystems) and an ABI 7900HT thermal cycler (Applied Biosystems, Thermo Fisher Scientific). Ct values were normalized to 18s rRNA and are expressed as fold change over samples from mice fed NC or cultured human hepatocytes without NCT.

PPARGC1A mRNA = experiment: RT-PCR of mouse liver, PPARGC1A; assay type: in vivo; conditions: HFD+NCT vs HFD, FIGS. 4A-4C
Protocol: as §2, §3

Sirt1 mRNA = experiment: RT-PCR of mouse liver, Sirtuin1; assay type: in vivo; conditions: HFD+NCT vs HFD, FIG. 4D
Protocol: as §2, §3

IL-6 mRNA = experiment: RT-PCR of mouse liver, IL-6; assay type: in vivo; conditions: HFD+NCT vs HFD, FIG. 5A
Protocol: as §2, §3

SDHA mRNA [4] = experiment: RT-PCR of primary human hepatocytes, SDHA; assay type: cell-based; conditions: HEP-fat media, NCT 5, 15, and 40 μM, FIGS. 3I and 3J
Protocol: (§4) Primary human hepatocytes. Experiments with primary human hepatocytes were performed by CN-Bio (Cambridge, UK). Briefly, primary human hepatocytes (PHHs), human Kupffer cells (HKs) and human stellate cells (HSCs) were seeded onto CN-Bio's PhysioMimix LC12 MPS culture plates at 6×10^5 cells for PHHs and 6×10^4 cells for HKs and HSCs in 1.6 ml of CN-Bio's HEP-lean media with 5% FCS. Throughout the experiment the cells were maintained at a flow rate of 1 μl/s. After 24 hours (Day 1) of seeding, the media was changed to HEP-lean media and the cells were incubated until day 4 to allow the cells to form microtissues. At day 4 post seeding, media was changed to HEP-fat media and treated with DMSO or NCT (5, 15, and 40 μM). Media was replaced on days 6 and 8. Cells were harvested on day 10 for RNA extraction and culture media was collected for ELISA analysis.
as §3

IL-6 protein = experiment: ELISA of culture media of primary human hepatocytes, IL-6; assay type: cell-based; conditions: HEP-fat media, NCT 5, 15, and 40 μM, FIG. 5D
Protocol: as §4

[5] = liver lysate, HFD+NCT vs HFD, 10 weeks

T1 sequence (P49698 whole entry): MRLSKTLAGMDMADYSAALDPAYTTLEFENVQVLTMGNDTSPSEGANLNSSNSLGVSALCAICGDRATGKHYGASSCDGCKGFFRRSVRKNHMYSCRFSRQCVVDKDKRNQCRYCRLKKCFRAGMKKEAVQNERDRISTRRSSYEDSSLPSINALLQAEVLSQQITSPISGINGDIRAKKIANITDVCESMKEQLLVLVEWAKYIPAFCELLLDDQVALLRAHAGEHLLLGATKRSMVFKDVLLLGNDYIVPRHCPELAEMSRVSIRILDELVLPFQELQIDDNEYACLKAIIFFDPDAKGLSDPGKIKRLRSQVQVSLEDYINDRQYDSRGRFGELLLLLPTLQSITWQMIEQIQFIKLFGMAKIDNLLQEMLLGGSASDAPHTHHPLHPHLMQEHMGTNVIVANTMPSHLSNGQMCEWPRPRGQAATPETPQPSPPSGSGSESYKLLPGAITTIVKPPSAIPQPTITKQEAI

O=C(/C=C/c1ccc(O)c(O)c1)NCCc1ccc(O)cc1 [NCT, N-trans caffeoyltyramine]
HNF4α expression in liver (HNF4α fluorescence intensity) (HNF4α): reversed
FAO activity in the presence of octanoyl CoA [1, 5]: increase
baseline FAO activity in the absence of octanoyl CoA [1, 5]: increase
overall FAO activity in the assay [1, 5]: unchanged; also recorded: non-significant
fatty acid oxidation ([1]; mice fed HFD containing NCT vs HFD alone): increased
total cellular NAD in liver [2]: increased; also recorded: substantial increase
citrate synthase level in liver (citrate synthase): reverse the depression
SDHA mRNA in mouse liver (SDHA mRNA [3]): increase
PPARGC1A(PGC1a) mRNA level in mouse liver (PPARGC1A mRNA): increase
Sirt1 mRNA in mouse liver (Sirt1 mRNA): reverse the depression
IL-6 level in livers of mice on HFD (IL-6 mRNA): decreased
IL-6 level in livers of mice on HFD (IL-6 mRNA; listed as Compound A): decrease
SDHA mRNA in human hepatocytes (SDHA mRNA [4]): increase
IL-6 protein level secreted by cultured human hepatocytes (IL-6 protein): decrease
